{
  "source": "patent US20200247812A1",
  "about": "(Integral Biosciences Private Limited, priority 2018, published 2020)",
  "data": [
    {"biological_target": "T1, ALK 5 (Homo sapiens, UniProt P36897)", "T1 sequence (P36897 34-503)": "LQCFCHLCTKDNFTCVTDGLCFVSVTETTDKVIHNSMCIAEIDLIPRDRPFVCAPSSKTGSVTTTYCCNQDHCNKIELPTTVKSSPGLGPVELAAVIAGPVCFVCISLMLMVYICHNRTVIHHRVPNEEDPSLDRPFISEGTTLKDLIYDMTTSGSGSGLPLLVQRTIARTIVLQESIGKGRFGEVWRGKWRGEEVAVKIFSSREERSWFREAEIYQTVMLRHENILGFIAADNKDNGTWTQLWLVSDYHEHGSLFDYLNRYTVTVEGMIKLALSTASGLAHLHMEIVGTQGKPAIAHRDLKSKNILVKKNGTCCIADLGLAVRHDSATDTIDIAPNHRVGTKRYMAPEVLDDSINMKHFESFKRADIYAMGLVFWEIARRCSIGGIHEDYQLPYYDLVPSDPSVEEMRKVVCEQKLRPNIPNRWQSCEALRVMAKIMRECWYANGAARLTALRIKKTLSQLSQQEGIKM", "test": "In vitro kinase assay (ALK5 IC50, LanthaScreen Terbium labeled TR-FRET)", "type": "biochemical", "conditions": "TGF-β kinase 6 nM, ATP 10 μM, read-out: Enzyme Activity ALK 5 IC50", "experimental": "Compounds of the invention were screened in an in vitro kinase assay against ALK 5, a members of the TGF-β family of Ser/Thr kinases. Standard kinase testing conditions and techniques were employed. IC50 values of compounds against TGF-ß kinase was determined by LanthaScreen™ Terbium Labeled TR-FRET assay. Kinase assays were performed in 1X kinase buffer (# PV6135, Invitrogen, Life Technologies Grand Island, N.Y.) where total reaction volume was 10 μL in low-volume 384-well plates (#4511, Corning). Serially diluted compounds (3-fold) were incubated with TGF-β kinase (6 nM) for 10 min, following which a mixture of ATP (10 μM) (# A1852, Sigma, St-Louis, Mo.) and fluorescent-PolyGT substrate (200 nM); Cat # PV3610, Invitrogen, Life Technologies Grand Island, N.Y.) was added and incubated in dark at room temperature for 1 h. After 1 h, 10 μL stop solution containing Terbium labeled antibody (4 nM; Cat # PV3529, Invitrogen, Life Technologies Grand Island, N.Y.) and EDTA (# E5134, Sigma, St-Louis, Mo.; 20 mM) in TR-FRET dilution buffer (Cat # PV3574, Invitrogen, Life Technologies Grand Island, N.Y.) was added. Readings were taken in a Synergy Neo Plate reader (BioTek, Winooski) at single excitation of 340 nm and Dual emission at 495 nm and 520 nm respectively.\nThe % activity of test samples was calculated as (Sample-Min)×100/(Max −Min). [Max: DMSO control, complete reaction with enzyme with DMSO and Min: No enzyme with DMSO]. Percent inhibition (100-% activity) was fitted to the “four-parameter logistic model” in XLfit for determination of IC50 values.", "units": {"IC50": "nM"}, "values": [
      {"smiles": "CCc1[nH]c(=O)c(-c2ccc(F)c(Cl)c2)cc1Nc1ccnc(NC(C)=O)c1", "note": "[Compound 1.88, N-(4-((5-(3-chloro-4-fluorophenyl)-2-ethyl-6-oxo-1,6-dihydropyridin-3-yl)amino)pyridin-2-yl)acetamide]", "IC50": "≤ 500"},
      {"smiles": "CC(=O)Nc1cc(Nc2cc(-c3ccsc3)c(=O)[nH]c2C(C)C)ccn1", "note": "[Compound 1.79, N-(4-((2-isopropyl-6-oxo-5-(thiophen-3-yl)-1,6-dihydropyridin-3-yl)amino)pyridin-2-yl)acetamide]", "IC50": "≤ 500"},
      {"smiles": "C[C@H](O)CNC(=O)c1cnccc1Nc1cc(-c2cc(Cl)ccc2F)c(=O)[nH]c1N(C)C", "note": "[Compound 1.9, (S)-4-((5-(5-chloro-2-fluorophenyl)-2-(dimethylamino)-6-hydroxypyridin-3-yl)amino)-N-(2-hydroxypropyl)nicotinamide]", "IC50": "2000 to 5000"},
      {"smiles": "CN(C)c1[nH]c(=O)c(-c2cc(Cl)ccc2F)cc1Nc1ccncc1F", "note": "[Compound 1.41, 3-(5-chloro-2-fluorophenyl)-6-(dimethylamino)-5-((3-fluoropyridin-4-yl)amino)pyridin-2 (1H)-one]", "IC50": "2000 to 5000"},
      {"smiles": "CNC(=O)c1cnccc1Nc1cc(-c2cc(Cl)ccc2F)c(=O)[nH]c1C1CC1", "note": "[Compound 1.68, 4-((5-(5-chloro-2-fluorophenyl)-2-cyclopropyl-6-oxo-1,6-dihydropyridin-3-yl)amino)-N-methylnicotinamide]", "IC50": "≤ 500"},
      {"smiles": "CC(C)c1[nH]c(=O)c(-c2cc(Cl)ccc2F)cc1Nc1ccnc(NC(=O)C(C)(C)C)c1", "note": "[Compound 1.49, N-(4-((5-(5-chloro-2-fluorophenyl)-2-isopropyl-6-oxo-1,6-dihydropyridin-3-yl)amino)pyridin-2-yl)pivalamide]", "IC50": "> 5000"},
      {"smiles": "CC(=O)Nc1cc(Nc2cc(-c3ccc(F)c(Cl)c3)c(=O)[nH]c2C(C)C)ccn1", "note": "[Compound 1.58, N-(4-((5-(3-chloro-4-fluorophenyl)-2-isopropyl-6-oxo-1,6-dihydropyridin-3-yl)amino)pyridin-2-yl)acetamide]", "IC50": "≤ 500"},
      {"smiles": "CC(C)c1[nH]c(=O)c(-c2cc(Cl)ccc2F)cc1Nc1ccnc(NC(=O)C2CC2)c1", "note": "[Compound 1.45, N-(4-((5-(5-chloro-2-fluorophenyl)-2-isopropyl-6-oxo-1,6-dihydropyridin-3-yl)amino)pyridin-2-yl)cyclopropanecarboxamide]", "IC50": "> 5000"},
      {"smiles": "CN(C)c1[nH]c(=O)c(-c2cc(Cl)ccc2F)cc1Nc1ccncc1C1=NCCN1", "note": "[Compound 1.35, 3-(5-chloro-2-fluorophenyl)-5-((3-(4,5-dihydro-1H-imidazol-2-yl)pyridin-4-yl)amino)-6-(dimethylamino)pyridin-2(1H)-one]", "IC50": "2000 to 5000"},
      {"smiles": "CCc1[nH]c(=O)c(-c2cc(Cl)ccc2F)cc1Nc1ccncc1C(=O)NC", "note": "[Compound 1.72, 4-((5-(5-chloro-2-fluorophenyl)-2-ethyl-6-oxo-1,6-dihydropyridin-3-yl)amino)-N-methylnicotinamide]", "IC50": "≤ 500"},
      {"smiles": "CN(C)c1[nH]c(=O)c(-c2cc(Cl)ccc2F)cc1Nc1ccncc1C(F)(F)F", "note": "[Compound 1.15, 3-(5-chloro-2-fluorophenyl)-6-(dimethylamino)-5-((3-(trifluoromethyl)pyridin-4-yl)amino)pyridin-2(1H)-one]", "IC50": "> 5000"},
      {"smiles": "CSc1[nH]c(=O)c(-c2cc(Cl)ccc2F)cc1Nc1ccnc2ccncc12", "note": "[Compound 1.36, 5-((1,6-naphthyridin-4-yl)amino)-3-(5-chloro-2-fluorophenyl)-6-(methylthio)pyridin-2(1H)-one]", "IC50": "≤ 500"},
      {"smiles": "O=c1[nH]c(C2CC2)c(Nc2ccnc3ccncc23)cc1-c1cc(Cl)ccc1F", "note": "[Compound 1.67, 5-((1,6-naphthyridin-4-yl)amino)-3-(5-chloro-2-fluorophenyl)-6-cyclopropylpyridin-2(1H)-one]", "IC50": "≤ 500"},
      {"smiles": "CC(C)c1[nH]c(=O)c(-c2ccc(F)c(Cl)c2)cc1Nc1ncnc2c1CC(=O)N2", "note": "[Compound 1.85, 4-((5-(3-chloro-4-fluorophenyl)-2-isopropyl-6-oxo-1,6-dihydropyridin-3-yl)amino)-5,7-dihydro-6H-pyrrolo[2,3-d]pyrimidin-6-one]", "IC50": "500 to 2000"},
      {"smiles": "Cc1cccc(-c2cc(Nc3ccnc4[nH]ccc34)c(N(C)C)[nH]c2=O)n1", "note": "[Compound 1.13, 5′-((1H-pyrrolo[2,3-b]pyridin-4-yl)amino)-6′-(dimethylamino)-6-methyl-[2,3′-bipyridin]-2′(1′H)-one]", "IC50": "2000 to 5000"},
      {"smiles": "C[C@@H](CO)NC(=O)c1cnccc1Nc1cc(-c2cc(Cl)ccc2F)c(=O)n(C)c1N(C)C", "note": "[Compound 1.17, (S)-4-((5-(5-chloro-2-fluorophenyl)-2-(dimethylamino)-1-methyl-6-oxo-1,6-dihydropyridin-3-yl)amino)-N-(1-hydroxypropan-2-yl)nicotinamide]", "IC50": "2000 to 5000"},
      {"smiles": "CC(=O)Nc1cc(Nc2cc(-c3cc(Cl)c(C)cc3F)c(=O)[nH]c2C(C)C)ccn1", "note": "[Compound 1.64, N-(4-((5-(5-chloro-2-fluoro-4-methylphenyl)-2-isopropyl-6-oxo-1,6-dihydropyridin-3-yl)amino)pyridin-2-yl)acetamide]", "IC50": "> 5000"},
      {"smiles": "CC(=O)Nc1cc(N(C)c2cc(-c3cc(Cl)ccc3F)c(=O)[nH]c2C(C)C)ccn1", "note": "[Compound 1.66, N-(4-((5-(5-chloro-2-fluorophenyl)-2-isopropyl-6-oxo-1,6-dihydropyridin-3-yl)(methyl)amino)pyridin-2-yl)acetamide]", "IC50": "500 to 2000"},
      {"smiles": "CNC(=O)c1cnccc1Nc1cc(-c2cc(Cl)ccc2F)c(=O)[nH]c1SC", "note": "[Compound 1.39, 4-((5-(5-chloro-2-fluorophenyl)-2-(methylthio)-6-oxo-1,6-dihydropyridin-3-yl)amino)-N-methylnicotinamide]", "IC50": "≤ 500"},
      {"smiles": "CCc1[nH]c(=O)c(-c2ccc(F)c(Cl)c2)cc1Nc1ccnc2ccncc12", "note": "[Compound 1.87, 5-((1,6-naphthyridin-4-yl)amino)-3-(3-chloro-4-fluorophenyl)-6-ethylpyridin-2(1H)-one]", "IC50": "≤ 500"},
      {"smiles": "C[C@H](CO)NC(=O)c1cnccc1Nc1cc(-c2cc(Cl)ccc2F)c(=O)n2c1N(C)CC2", "note": "[Compound 1.23, (R)-4-((6-(5-chloro-2-fluorophenyl)-1-methyl-5-oxo-1,2,3,5-tetrahydroimidazo[1,2-a]pyridin-8-yl)amino)-N-(1-hydroxypropan-2-yl)nicotinamide]", "IC50": "> 5000"},
      {"smiles": "CC(C)c1[nH]c(=O)c(-c2cc(Cl)ccc2F)cc1Nc1ncnc2c1CC(=O)N2", "note": "[Compound 1.78, 4-((5-(5-chloro-2-fluorophenyl)-2-isopropyl-6-oxo-1,6-dihydropyridin-3-yl)amino)-5,7-dihydro-6H-pyrrolo[2,3-d]pyrimidin-6-one]", "IC50": "≤ 500"},
      {"smiles": "CC(=O)Nc1cc(Nc2cc(-c3ccccc3CO)c(=O)[nH]c2C(C)C)ccn1", "note": "[Compound 1.53, N-(4-((5-(2-(hydroxymethyl)phenyl)-2-isopropyl-6-oxo-1,6-dihydropyridin-3-yl)amino)pyridin-2-yl)acetamide]", "IC50": "> 5000"},
      {"smiles": "CN(C)c1[nH]c(=O)c(-c2cc(Cl)ccc2F)cc1Nc1ccncc1C(=O)NC(CO)CO", "note": "[Compound 1.11]", "IC50": "> 5000"},
      {"smiles": "C[C@@H](O)CNC(=O)c1cnccc1Nc1cc(-c2cc(Cl)ccc2F)c(=O)n2c1N(C)CCC2", "note": "[Compound 1.26, (R)-4-((7-(5-chloro-2-fluorophenyl)-1-methyl-6-oxo-1,3,4,6-tetrahydro-2H-pyrido[1,2-a]pyrimidin-9-yl)amino)-N-(2-hydroxypropyl)nicotinamide]", "IC50": "> 5000"},
      {"smiles": "CN(C)c1[nH]c(=O)c(-c2cc(Cl)ccc2F)cc1Nc1ccncc1C#N", "note": "[Compound 1.34, 4-((5-(5-chloro-2-fluorophenyl)-2-(dimethylamino)-6-oxo-1,6-dihydropyridin-3-yl)amino)nicotinonitrile]", "IC50": "> 5000"},
      {"smiles": "CC(C)c1[nH]c(=O)c(-c2cc(Cl)ccc2F)cc1Nc1ccnc(NC2CC2)c1", "note": "[Compound 1.55, 3-(5-chloro-2-fluorophenyl)-5-((2-(cyclopropylamino)pyridin-4-yl)amino)-6-isopropylpyridin-2(1H)-one]", "IC50": "2000 to 5000"},
      {"smiles": "COc1[nH]c(=O)c(-c2cc(Cl)ccc2F)cc1Nc1ccnc2[nH]ccc12", "note": "[Compound 1.76, 5-((1H-pyrrolo[2,3-b]pyridin-4-yl)amino)-3-(5-chloro-2-fluorophenyl)-6-methoxypyridin-2(1H)-one]", "IC50": "≤ 500"}
    ]}
  ]
}
